According to patent US20220324835A1 (Nurix Therapeutics, Inc., priority 2018, published 2022):

Columns and labels:
Type in all cases: cell-based
[1] = test system: primary human total T-cells; assay: T-cell activation assessed by cytokine secretion (GM-CSF, IFNγ, TNFα)
Description: (§1) Peripheral blood mononuclear cells (PBMC) were obtained either: 1) by using Ficoll-Paque™ (GE Healthcare) for separation of peripheral blood hematopoietic cells from buffy coats of healthy human donors; or 2) directly from FeukoPak donations. Total human primary T-cells were isolated from the PMBCs utilizing negative selection with commercial kits following the manufacturer's protocol (Miltenyi Catalog #130-096-535 (i.e., cocktail of antibodies against surface markers CD14, CD15, CD16, CD19, CD34, CD36, CD56, CD123 and CD235a are incubated with the PBMCs before passing the samples by magnetic beads for removal of cells expressing those surface markers) or StemCells Catalog #17951) to yield >95% CD3+ cells as assessed by flow cytometry. For measurement of cell proliferation, cells were labeled with Cell Trace Violet (Invitrogen) following manufacturer's protocol prior to activation by stimulation with anti-CD3 antibody alone or in combination with anti-CD28 antibody. The Cbl-b inhibitor was added to 1×10^5 cells per well at multiple concentrations (e.g., 10 μM, 1.11 μM, or 0.123 μM) with a final DMSO concentration of <0.1%. The plate was incubated for one hour at 37° C. in 5% CO2. Following incubation with the Cbl-b inhibitor, primary human total T-cells were stimulated with either plate bound anti-CD3 antibody (OKT3) alone or plate bound anti-CD3 antibody (OKT3) with soluble anti-CD28 antibody (28.2) (Life Technologies). To prepare plates with plate bound anti-CD3 antibody (OKT3), 96-well round bottom tissue culture plates were coated with 100 μl of anti-CD3 antibody (OKT3) at 10 μg/mL for 4 hours at 37° C. 5% CO2 in phosphate buffered saline (PBS). The plates were washed with PBS prior to adding the cells with or without soluble anti-CD28 antibody (28.2) to each well at a final concentration of 5 μg/mL. Cells were stimulated for 48 hours prior to harvesting the cell free supernatant and staining the cell population for surface marker assessment by flow cytometry. Supernatants were analyzed for cytokine secretion (e.g., GM-CSF, IFNγ and TNFα) by ELISA (R&D Systems, Peprotech or Life Technologies) or Luminex multiplex kits (Procarta Life Technologies) following manufacturer's protocol. Cells were stained with anti-CD69 (BD Biosciences) to assess levels of surface markers of activation. Proliferation was measured by flow cytometry and data was analyzed with FlowJo v7.6.5 or v10. Readouts were reported as fold change over baseline. In some embodiments, baseline was the measurement obtained from total human T-cells stimulated with anti-CD3 antibody alone, wherein the cells were not incubated with a Cbl-b inhibitor. In some embodiments, baseline was the measurement obtained from total human T-cells stimulated with anti-CD3 antibody and anti-CD28 antibody, where the cells were not incubated with a Cbl-b inhibitor.
(§2) Cbl-b inhibitors were tested to determine their ability to induce or enhance secretion of cytokines from T-cells (e.g., GM-CSF, IFNγ and TNFα) and/or surface expression of cell surface markers on T-cells (e.g., CD69) that is indicative of T-cell activation. Cbl-b inhibitors were also tested to determine their ability to induce or enhance T-cell proliferation. Cbl-b inhibitors were tested for their effects on T-cell activation in the presence of costimulation and where conditions were suboptimal for priming.
(§3) Readouts for T-cell activation were reported as fold change over baseline. Baseline for this study was the measurement obtained from total human T-cells stimulated with anti-CD3 antibody alone or anti-CD3 antibody in combination with soluble anti-CD28 antibody, where the cells were not incubated with a Cbl-b inhibitor. For T-cells stimulated with anti-CD3/anti-CD28 or with anti-CD3 alone changes greater than 1,2-fold over baseline for % positive CD69 staining and greater than 2-fold over baseline for % total proliferating cells were considered a significant and positive response (Table 4a). […]

[2] = test system: primary human total T-cells; assay: T-cell activation assessed by CD69 expression
Description: as §1, §2, §3

[3] = test system: primary human total T-cells; assay: T-cell activation assessed by cell proliferation (Cell Trace Violet)
Description: as §1, §2, §3

[4] = CD3/CD28 stimulation, read-out: GM-CSF secretion
[5] = CD3/CD28 stimulation, read-out: IFNγ secretion
[6] = CD3/CD28 stimulation, read-out: TNFα secretion
[7] = CD3 alone stimulation, read-out: GM-CSF secretion
[8] = CD3 alone stimulation, read-out: IFNγ secretion
[9] = CD3 alone stimulation, read-out: TNFα secretion
[10] = CD3/CD28 stimulation, CD4 T-cells, read-out: % CD69+ (CD4)
[11] = CD3/CD28 stimulation, CD8 T-cells, read-out: % CD69+ (CD8)
[12] = CD3 alone stimulation, CD4 T-cells, read-out: % CD69+ (CD4)
[13] = CD3 alone stimulation, CD8 T-cells, read-out: % CD69+ (CD8)
[14] = CD3/CD28 stimulation, CD4 T-cells, read-out: % CP (cell proliferation) (CD4)
[15] = CD3/CD28 stimulation, CD8 T-cells, read-out: % CP (cell proliferation) (CD8)
[16] = CD3 alone stimulation, CD8 T-cells, read-out: % CP (cell proliferation) (CD8)

## C[C@H](Cc1nncn1C)c1cccc(N2Cc3c(cc(CN4CC(O)C4)cc3C(F)(F)F)C2=O)c1 [Compound 393, (R)-6-((3-hydroxyazetidin-1-yl)methyl)-2-(3-(1-(4-methyl-4H-1,2,4-triazol-3-yl)propan-2-yl)phenyl)-4-(trifluoromethyl)isoindolin-1-one]
[1]; [4]
  fold induction at 1.11 µM: ≤ 1.5
  fold induction at 10 µM: 1.51 to 2
[1]; [5]
  fold induction at 1.11 µM: 2.01 to 3
  fold induction at 10 µM: > 4
[1]; [6]
  fold induction at 1.11 µM: ≤ 1.5
  fold induction at 10 µM: 1.51 to 2
[1]; [7]
  fold induction at 1.11 µM: ≤ 1.5
  fold induction at 10 µM: ≤ 1.5
[1]; [8]
  fold induction at 1.11 µM: < 2
  fold induction at 10 µM: < 2
[1]; [9]
  fold induction at 1.11 µM: ≤ 1.5
  fold induction at 10 µM: ≤ 1.5
[2]; [10]
  fold induction at 1.11 µM: ≤ 1.2
  fold induction at 10 µM: 1.2 to 1.4
[2]; [11]
  fold induction at 1.11 µM: ≤ 1.2
  fold induction at 10 µM: ≤ 1.2
[2]; [12]
  fold induction at 1.11 µM: 1.2 to 1.4
  fold induction at 10 µM: 1.2 to 1.4
[2]; [13]
  fold induction at 1.11 µM: ≤ 1.2
  fold induction at 10 µM: ≤ 1.2
[3]; [14]
  fold induction at 1.11 µM: < 2
  fold induction at 10 µM: 3.01 to 4
[3]; [15]
  fold induction at 1.11 µM: < 2
  fold induction at 10 µM: 2.01 to 3
[3]; [16]
  fold induction at 1.11 µM: < 2
  fold induction at 10 µM: < 2

## C[C@H](Cc1nncn1C)c1cccc(N2Cc3c(cc(CN4CC(C)(O)C4)cc3C(F)(F)F)C2=O)c1 [Compound 397]
[1]; [4]
  fold induction at 1.11 µM: 2.01 to 4
  fold induction at 10 µM: > 4
[1]; [5]
  fold induction at 1.11 µM: 2.01 to 3
  fold induction at 10 µM: > 4
[1]; [6]
  fold induction at 1.11 µM: 2.01 to 4
  fold induction at 10 µM: 2.01 to 4
[1]; [7]
  fold induction at 1.11 µM: 2.01 to 4
  fold induction at 10 µM: 2.01 to 4
[1]; [8]
  fold induction at 1.11 µM: < 2
  fold induction at 10 µM: < 2
[1]; [9]
  fold induction at 1.11 µM: 1.51 to 2
  fold induction at 10 µM: 1.51 to 2
[2]; [10]
  fold induction at 1.11 µM: 1.4 to 1.6
  fold induction at 10 µM: 1.4 to 1.6
[2]; [11]
  fold induction at 1.11 µM: 1.2 to 1.4
  fold induction at 10 µM: 1.2 to 1.4
[2]; [12]
  fold induction at 1.11 µM: > 1.6
  fold induction at 10 µM: > 1.6
[2]; [13]
  fold induction at 1.11 µM: 1.2 to 1.4
  fold induction at 10 µM: 1.4 to 1.6
[3]; [14]
  fold induction at 1.11 µM: > 4
  fold induction at 10 µM: > 4
[3]; [15]
  fold induction at 1.11 µM: 3.01 to 4
  fold induction at 10 µM: > 4
[3]; [16]
  fold induction at 1.11 µM: > 4
  fold induction at 10 µM: > 4

## Cc1cc(C(=O)Nc2cccc(C3(Cc4nncn4C)COC3)c2)nc(C2CC2)n1 [Compound 336, 2-cyclopropyl-6-methyl-N-(3-(3-((4-methyl-4H-1,2,4-triazol-3-yl)methyl)oxetan-3-yl)phenyl)pyrimidine-4-carboxamide]
[1]; [4]
  fold induction at 1.11 µM: 2.01 to 4
  fold induction at 10 µM: > 4
[1]; [5]
  fold induction at 1.11 µM: 2.01 to 3
  fold induction at 10 µM: > 4
[1]; [6]
  fold induction at 1.11 µM: 2.01 to 4
  fold induction at 10 µM: 2.01 to 4
[1]; [7]
  fold induction at 1.11 µM: 2.01 to 4
  fold induction at 10 µM: 2.01 to 4
[1]; [8]
  fold induction at 1.11 µM: 2.01 to 3
  fold induction at 10 µM: > 4
[1]; [9]
  fold induction at 1.11 µM: 1.51 to 2
  fold induction at 10 µM: 1.51 to 2
[2]; [10]
  fold induction at 1.11 µM: 1.4 to 1.6
  fold induction at 10 µM: 1.4 to 1.6
[2]; [11]
  fold induction at 1.11 µM: 1.2 to 1.4
  fold induction at 10 µM: 1.2 to 1.4
[2]; [12]
  fold induction at 1.11 µM: 1.4 to 1.6
  fold induction at 10 µM: > 1.6
[2]; [13]
  fold induction at 1.11 µM: 1.2 to 1.4
  fold induction at 10 µM: 1.4 to 1.6
[3]; [14]
  fold induction at 1.11 µM: > 4
  fold induction at 10 µM: > 4
[3]; [15]
  fold induction at 1.11 µM: 3.01 to 4
  fold induction at 10 µM: > 4
[3]; [16]
  fold induction at 1.11 µM: > 4
  fold induction at 10 µM: > 4
